In patent publication US20070142384A1, “Compounds, pharmaceutical compositions and methods for use in treating metabolic disorders” (AMGEN INC., priority 2004, published 2007):

Biological target: T1, human GPR40 (Homo sapiens, UniProt O14842)
T1 construct: expressed in transfected cells; host or cells: CHO cells, transient co-transfection with Aequorin expression vector (Euroscreen)
Assay: Cell-based aequorin assay using human GPR40
Conditions: activation of human GPR40; CHO cells transfected with GPR40 and Aequorin expression vectors; aequorin luminescence, area-under-curve 2-20 seconds; 0.01% BSA or 0.625% HSA; read-out: Relative EC50
Description: A cell-based aequorin assay may be employed to characterize the modulatory activity of compounds on the GPR40 signaling pathway. In an exemplary assay, CHO cells are transfected in a 15 cm plated containing 14 million cells with 5 μg of GPR40 expression vector and 5 μg of Aequorin expression vector (Euroscreen) using Lipofectamine 2000 (Invitrogen). […] Trypsinization is halted with 28 mL of Hanks Buffered Salt Solution containing 20 mM Hepes (H/HBSS) and 0.01% fatty acid-free bovine serum albumin (BSA) or 0.625% fatty acid-free human serum albumin (HSA). […] Cells are gently mixed every 15 minutes. Compounds are dissolved in dimethyl sulfoxide for preparation of 10 mM stock solutions. Compounds are diluted in H/HBSS containing either 0.01% BSA or 0.625% HSA. Serial dilutions of the test compounds are prepared to determine dose response.
Aequorin luminescence measurements are made using an EG&G Berthold 96-well luminometer and the response is measured over a 20 second interval after cells and compounds were mixed. […] The EC50 (effective concentration to reach 50% maximal response) is determined from the dose response plot. […]

T1 sequence (O14842 whole entry): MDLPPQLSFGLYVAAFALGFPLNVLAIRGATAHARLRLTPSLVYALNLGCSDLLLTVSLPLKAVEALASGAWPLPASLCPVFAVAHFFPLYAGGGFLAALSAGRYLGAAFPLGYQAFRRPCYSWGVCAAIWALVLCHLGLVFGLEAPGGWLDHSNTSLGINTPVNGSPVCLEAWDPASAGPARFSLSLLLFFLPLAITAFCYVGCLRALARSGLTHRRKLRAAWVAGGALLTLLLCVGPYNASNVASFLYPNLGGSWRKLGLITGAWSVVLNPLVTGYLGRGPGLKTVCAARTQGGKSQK

An EC50 of 1 to 10 µM was found for `O=C(O)CC(c1ccc(OCc2cccc(-c3ccc(C(F)(F)F)cc3)c2)cc1)C1CC1` (stereo not shown) [Compound 91] in this work.
